What is called IC50 is the midpoint of a concentration-inhibition curve.

The values that follow come from ChEMBL document CHEMBL1146924, “Beta-diketo acids with purine nucleobase scaffolds: novel, selective inhibitors of the strand transfer step of HIV integrase” (Bioorg Med Chem Lett, 2006).

Molecules are shown by their SMILES.

In assay [1] the target is T1, Human immunodeficiency virus type 1 integrase (Human immunodeficiency virus 1, UniProt Q7ZJM1). The assay is described as follows: Inhibition of HIV1 integrase strand transfer step.
T1 sequence (Q7ZJM1 whole entry): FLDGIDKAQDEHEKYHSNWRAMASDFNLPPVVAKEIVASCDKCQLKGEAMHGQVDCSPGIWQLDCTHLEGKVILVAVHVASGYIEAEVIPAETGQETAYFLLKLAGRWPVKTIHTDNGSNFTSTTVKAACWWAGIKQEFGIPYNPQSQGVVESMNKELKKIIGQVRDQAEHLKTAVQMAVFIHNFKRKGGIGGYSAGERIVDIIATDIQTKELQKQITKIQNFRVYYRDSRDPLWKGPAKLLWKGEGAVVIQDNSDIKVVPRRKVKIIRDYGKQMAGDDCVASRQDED
Assay [2] deals with T1, Human immunodeficiency virus type 1 integrase. The assay is described as follows: Inhibition of HIV1 integrase 3'-processing step.

Turning to `O=C(O)C(=O)/C=C(/O)c1nc2cncnc2n1Cc1ccccc1`, the IC50 turned out to be 10 µM in assay [1] and 100 µM in assay [2].
The like results for `O=C(O)C(=O)/C=C(/O)c1nc2c(=O)n(Cc3ccccc3)cnc2n1Cc1ccccc1` were, in that order, 4.1 µM and 31.5 µM.
The like results for `O=C(O)C(=O)/C=C(\O)c1ncnc2c1ncn2Cc1ccccc1` were, in that order, 790 µM and 1000 µM.
Consider `O=C(O)C(=O)/C=C(\O)c1nc2c(ncn2Cc2ccccc2)c(=O)n1Cc1ccccc1`, for which the IC50 in assay [1] is 2.7 µM; in assay [2], 30 µM.
